Legend:
Test in all cases: MIC by agar dilution method
Assay type in all cases: cell-based
S. aureus E-88 = system: S. aureus E-88
Source text: (§1) The minimum inhibitory concentration (MIC) against different test strains, determined by agar dilution method in the known manner, are given in Table 2.

S. aureus Brussels 4115 = system: S. aureus Brussels 4115
Source text: as §1

S. epi. 5747 IIW = system: S. epi. 5747 IIW
Source text: as §1

S. epi. 32965 = system: S. epi. 32965
Source text: as §1

[1] = system: Ent. faecium P-1 (V^R,T^R); details: Vancomycin resistant, Teicoplanin resistant
Source text: as §1

S. epi. 825 (T^S) = details: Teicoplanin sensitive
Source text: as §1

S. aureus 3066 = S. aureus 3066 (resistant to methicillin)
Source text: as §1

[2] = system: Ent. faecium P-2 (V^R,T^R); details: Vancomycin resistant, Teicoplanin resistant
Source text: as §1

[3] = system: Ent faecalis durans 4931 H
Source text: as §1

Ent. equinus (V^R,T^R) = details: Vancomycin resistant, Teicoplanin resistant
Source text: as §1

S. epi. 823 (T^R) = details: Teicoplanin resistant
Source text: as §1

S. aureus E 710 = system: S. aureus E 710
Source text: as §1

Ent. faecalis D-7F = system: Ent. faecalis D-7F
Source text: as §1

[4] = system: Enterococcus faecalis ATCC 29212
Source text: as §1

[5] = system: Ent. faecium R-1 (V^R,T^R); details: Vancomycin resistant, Teicoplanin resistant
Source text: as §1

S. epi 6026 = system: S. epi 6026
Source text: as §1

[6] = system: Staphylococcus aureus 209P
Source text: as §1

S. aureus 20424 = system: S. aureus 20424
Source text: as §1

S. aureus Chantot 31153 = system: S. aureus Chantot 31153
Source text: as §1

S. aureus Wein 11 = system: S. aureus Wein 11
Source text: as §1

Ent. faecalis 4045H = system: Ent. faecalis 4045H
Source text: as §1

S. aureus Wein 12 = system: S. aureus Wein 12
Source text: as §1

S. aureus E 712 = system: S. aureus E 712
Source text: as §1

S. epi. 109 = system: S. epi. 109
Source text: as §1

S. aureus 20240 = system: S. aureus 20240
Source text: as §1

Escherichia coli 2231 = system: Escherichia coli 2231
Source text: as §1

[7] = system: Ent. faecium R-2 (V^R,T^R); details: Vancomycin resistant, Teicoplanin resistant
Source text: as §1

Ent. hirae 55 = system: Ent. hirae 55
Source text: as §1

S. aureus Brussels 810 = system: S. aureus Brussels 810
Source text: as §1

Ent. faecium D-65 = system: Ent. faecium D-65
Source text: as §1

S. haemo. 712 (T^S) = details: Teicoplanin sensitive
Source text: as §1

S. epi. 8 Schah = system: S. epi. 8 Schah
Source text: as §1

S. haemo. 712 (T^R) = details: Teicoplanin resistant
Source text: as §1

Measured: MIC

methylsulfomycin I
0.06 mg/L: [6]
> 100 mg/L: Escherichia coli 2231
0.125 mg/L: all other assays above

— patent EP0818464B1, “Methylsulfomycin l, a process for its production and its use” (HOECHST AKTIENGESELLSCHAFT, priority 1996, dated 1998)
